# Assay results from US10603357B2, “Therapeutic TREM-1 peptides” (Universite de Lorraine, priority 2004, dated 2020).
# Tested on: BALB/c mice
# Assay: CLP polymicrobial sepsis model in mice (Example 3)
# Format: in vivo, mouse
# Conditions: for Serum IL-1β / Serum TNF-α / Serum sTREM-1: 24 hours after CLP
# Method: Male Balb/C mice (20 to 23 g) were randomly grouped and treated with normal saline (n=14) or the control peptide (n=14, 100 μg) or with P5 (100 μg) in a single infection at HO (n=18), H+4 (n=18) or H+24 (n=18). The last group of mice (n=18) was treated with repeated injections of P5 (100 μg) at H+4, H+8 and H+24.
# Mice (n=15 per group) were treated with a single injection of normal saline or 10 μg, 20 μg, 50 μg, 100 μg or 200 μg of P5 at HO after the CLP and monitored for survival.
# Mice (5 per group) were killed under anaesthesia at 24 hours after CLP. Bacterial counts in peritoneal lavage fluid and blood were determined and results are expressed as CFU per mL of blood and CFU per mouse for the peritoneal lavage.
# Male Balb/C mice (7 to 9 weeks, 20 to 23 g) were anaesthetized by i.p. administration of ketamine and xylazine in 0.2 mL sterile pyrogen-free saline. The caecum was exposed through a 1.0 cm abdominal midline incision and subjected to a ligation of the distal half followed by two punctures with a G21 needle. A small amount of stool was expelled from the punctures to ensure patency. The caecum was replaced into the peritoneal cavity and the abdominal incision closed in two layers. After surgery all mice were injected s.c. with 0.5 ml of physiologic saline solution for fluid resuscitation and s.c. every 12 h with 1.25 mg (i.e. 50 μg/g) of imipenem. The animals were randomly grouped and treated with normal saline (n=14), the control peptide (n=14, 100 μg) or P5 (100 μg) in a single injection at HO (n=18), H+4 (n=18) or H+24 (n=18). The last group of mice (n=18) was treated with repeated injections of P5 (100 μg) at H+4, H+8 and H+24. All treatments were diluted into 500 μl of normal saline and administered i.p. The Inventors next sought to determine the effect of various doses of P5. For this purpose, mice (n=15 per group) were treated with a single injection of normal saline or 10 μg, 20 μg, 50 μg 100 μg or 200 μg of P5 at HO after the CLP and monitored for survival. Five additional animals per group were killed under anaesthesia 24 hours after CLP for the determination of bacterial count and cytokines levels. Peritoneal lavage fluid was obtained using 2 mL RPMI 1640 (Life Technologies) and blood was collected by cardiac puncture. Concentrations of TNF-α and IL-1β in the serum were determined by ELISA (BD Biosciences). For the assessment of bacterial counts, blood and peritoneal lavage fluid were plated in serial log dilutions on tryptic soy supplemented with 5% sheep blood agar plates. After plating, tryptic soy agar plates were incubated at 37° C. aerobically for 24 hours, and anaerobically for 48 hours. Results are expressed as CFU per mL of blood and CFU per mouse for the peritoneal lavage.
sequence,measurement,setting,value
LQVTDSGLYRCVIYHPP [P5],effect on survival of repeated injections,"100 μg at H+4, H+8 and H+24 after CLP",more favourable effect on survival
same,Serum IL-1β,10 μg at H0,356 ± 62 pg/mL
same,Serum TNF-α,10 μg at H0,110 ± 11 pg/mL
same,Serum sTREM-1,10 μg at H0,43 ± 8 ng/mL
same,Serum IL-1β,20 μg at H0,324 ± 58 pg/mL
same,Serum TNF-α,20 μg at H0,89 ± 10 pg/mL
same,Serum sTREM-1,20 μg at H0,58 ± 8 ng/mL
same,Serum IL-1β,50 μg at H0,57 ± 11 pg/mL
same,Serum TNF-α,50 μg at H0,24 ± 6 pg/mL
same,Serum sTREM-1,50 μg at H0,93 ± 10 ng/mL
same,Serum IL-1β,100 μg at H0,31 ± 3 pg/mL
same,Serum TNF-α,100 μg at H0,20 ± 3 pg/mL
same,Serum sTREM-1,100 μg at H0,118 ± 12 ng/mL
same,Serum IL-1β,200 μg at H0,37 ± 8 pg/mL
same,Serum TNF-α,200 μg at H0,21 ± 7 pg/mL
same,Serum sTREM-1,200 μg at H0,158 ± 13 ng/mL
